From the supplement of paper PMC9013687

Assays:
Danio rerio embryo [1] = test: EC10 Pigmentation increase; higher = less potent; conditions: exposure time: 4 dpf
Description: (§1)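 Zebrafish embryos (UFZ-OBI strain) were exposed from 2 hpf for 48 h (2 dpf) or 96 h (4 dpf) at 28 °C; spontaneous tail coiling was scored at 25 hpf. Morphological features from automated image analysis (FishInspector), heart rate and locomotor response were fitted with drc models. Quantal endpoints were dichotomised at 2.5 SD from controls and fitted with a log-logistic model; heart rate, pigmentation and STC were normalised to the replicate control mean. Betamethasone was tested as betamethasone dipropionate, diflorasone as diflorasone diacetate.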

Danio rerio embryo [2] = test: EC20 Heart rate; higher = less potent
Description: as §1

Danio rerio embryo [3] = conditions: exposure time: 4 dpf
Description: as §1

Danio rerio embryo [4] = test: EC10 STC increase; higher = less potent; conditions: exposure time: 25 h
Description: as §1

Danio rerio embryo [5] = test: EC50 Eye size_Decrease
Description: as §1

Danio rerio embryo [6] = tested on: Danio rerio embryo
Description: as §1

Danio rerio embryo [7] = test: EC20 Head size_Decrease; higher = less potent
Description: as §1

Danio rerio embryo [8] = test: EC20 Lack of SB; higher = less potent; conditions: exposure time: 4 dpf
Description: as §1

Danio rerio embryo [9] = test: EC10 Eye size_Decrease; higher = less potent
Description: as §1

Danio rerio embryo [10] = test: EC50 Head size_Decrease
Description: as §1

Danio rerio embryo [11] = test: EC10 Heart rate; higher = less potent
Description: as §1

Danio rerio embryo [12] = test: EC20 Pigmentation increase; higher = less potent; conditions: exposure time: 4 dpf
Description: as §1

Danio rerio embryo [13] = test: EC10 Lack of SB; higher = less potent; conditions: exposure time: 4 dpf
Description: as §1

Danio rerio embryo [14] = test: EC20 STC increase; higher = less potent; conditions: exposure time: 25 h
Description: as §1

Danio rerio embryo [15] = test: EC10 Head size_Decrease; higher = less potent
Description: as §1

Danio rerio embryo [16] = test: EC20 Eye size_Decrease; higher = less potent
Description: as §1

Danio rerio embryo [17] = test: EC10 Pigmentation decrease; higher = less potent; conditions: exposure time: 2 dpf
Description: as §1

Danio rerio embryo [18] = test: EC20 LMR ligth increase; higher = less potent; conditions: exposure time: 4 dpf
Description: as §1

Danio rerio embryo [19] = test: EC10 STC decrease; higher = less potent; conditions: exposure time: 25 h
Description: as §1

Danio rerio embryo [20] = test: EC10 LMR ligth increase; higher = less potent; conditions: exposure time: 4 dpf
Description: as §1

Danio rerio embryo [21] = conditions: exposure time: 2 dpf
Description: as §1

Danio rerio embryo [22] = test: EC20 STC decrease; higher = less potent; conditions: exposure time: 25 h
Description: as §1

Danio rerio embryo [23] = test: EC20 Pigmentation decrease; higher = less potent; conditions: exposure time: 2 dpf
Description: as §1

Danio rerio embryo [24] = test: EC20 Head trunk angle_Decrease; higher = less potent; conditions: exposure time: 2 dpf
Description: as §1

Danio rerio embryo [25] = test: EC10 Otolith; higher = less potent; conditions: exposure time: 2 dpf
Description: as §1

Danio rerio embryo [26] = test: EC10 Head trunk angle_Decrease; higher = less potent; conditions: exposure time: 2 dpf
Description: as §1

Danio rerio embryo [27] = test: EC50 Head trunk angle_Decrease; conditions: exposure time: 2 dpf
Description: as §1

Danio rerio embryo [28] = test: EC20 Otolith; higher = less potent; conditions: exposure time: 2 dpf
Description: as §1

Danio rerio embryo [29] = test: EC10 Mandibular arch distance_Decrease; higher = less potent; conditions: exposure time: 4 dpf
Description: as §1

Danio rerio embryo [30] = test: EC20 Mandibular arch distance_Decrease; higher = less potent; conditions: exposure time: 4 dpf
Description: as §1

Danio rerio embryo [31] = test: EC50 Mandibular arch distance_Decrease; conditions: exposure time: 4 dpf
Description: as §1

Danio rerio embryo [32] = test: EC10 LMR ligth decrease; higher = less potent; conditions: exposure time: 4 dpf
Description: as §1

Danio rerio embryo [33] = test: EC20 LMR ligth decrease; higher = less potent; conditions: exposure time: 4 dpf
Description: as §1

SMILES	EC20 Heart rate (Danio rerio embryo [2]; exposure time: 2 dpf)	EC20 Heart rate (Danio rerio embryo [2]; exposure time: 4 dpf)	EC50 Lack of SB (Danio rerio embryo [3])	EC50 Eye size Decrease (Danio rerio embryo [5]; exposure time: 2 dpf)	EC50 Eye size Decrease (Danio rerio embryo [5]; exposure time: 4 dpf)	EC50 Heart rate (Danio rerio embryo [6]; exposure time: 2 dpf)	EC20 Head size Decrease (Danio rerio embryo [7]; exposure time: 2 dpf)	EC20 Lack of SB (Danio rerio embryo [8])	EC10 Eye size Decrease (Danio rerio embryo [9]; exposure time: 2 dpf)	EC10 Eye size Decrease (Danio rerio embryo [9]; exposure time: 4 dpf)	EC50 Head size Decrease (Danio rerio embryo [10]; exposure time: 2 dpf)	EC10 Heart rate (Danio rerio embryo [11]; exposure time: 2 dpf)	EC10 Heart rate (Danio rerio embryo [11]; exposure time: 4 dpf)	EC10 Lack of SB (Danio rerio embryo [13])	EC10 Head size Decrease (Danio rerio embryo [15]; exposure time: 2 dpf)	EC20 Eye size Decrease (Danio rerio embryo [16]; exposure time: 2 dpf)	EC20 Eye size Decrease (Danio rerio embryo [16]; exposure time: 4 dpf)	EC10 Pigmentation decrease (Danio rerio embryo [17])	EC10 STC decrease (Danio rerio embryo [19])	EC50 Heart rate (Danio rerio embryo [6]; exposure time: 4 dpf)	also measured
O=C(O)CCc1nc(-c2ccccc2)c(-c2ccccc2)o1 [Oxaprozin]	52.1 µM	29.1 µM	10.5 µM	78.1 µM	26.7 µM	150 µM	15.1 µM	8.73 µM	53.1 µM	20.6 µM	26.6 µM	28 µM	23 µM	7.85 µM	10.8 µM	61.2 µM	22.7 µM	–	–	–	EC10 Pigmentation increase (Danio rerio embryo [1]): 29.2 µM; EC10 STC increase (Danio rerio embryo [4]): 6.23 µM; EC20 Head size Decrease (Danio rerio embryo [7]; exposure time: 4 dpf): 19.7 µM; EC50 Head size Decrease (Danio rerio embryo [10]; exposure time: 4 dpf): 43.4 µM; EC20 Pigmentation increase (Danio rerio embryo [12]): 31 µM; EC20 STC increase (Danio rerio embryo [14]): 12.4 µM; EC10 Head size Decrease (Danio rerio embryo [15]; exposure time: 4 dpf): 12.4 µM
CCCNCC(O)COc1ccccc1C(=O)CCc1ccccc1 (stereo not given) [Propafenone]	4.31 µM	4.78 µM	7.65 µM	–	–	52.1 µM	–	6.61 µM	–	–	–	1 µM	2.29 µM	6.08 µM	–	–	–	43 µM	6.36 µM	16.8 µM	EC10 Pigmentation increase (Danio rerio embryo [1]): 23.1 µM; EC20 LMR ligth increase (Danio rerio embryo [18]): 17.3 µM; EC20 Head size Decrease (Danio rerio embryo [7]; exposure time: 4 dpf): 18.3 µM; EC10 LMR ligth increase (Danio rerio embryo [20]): 16.4 µM; EC50 Head size Decrease (Danio rerio embryo [10]; exposure time: 4 dpf): 31 µM; EC20 Pigmentation increase (Danio rerio embryo [12]): 26.5 µM; EC50 Pigmentation decrease (Danio rerio embryo [21]): 62.3 µM; EC20 STC decrease (Danio rerio embryo [22]): 13.3 µM; EC20 Pigmentation decrease (Danio rerio embryo [23]): 49.3 µM; EC10 Head size Decrease (Danio rerio embryo [15]; exposure time: 4 dpf): 13.4 µM
CCO/N=C(\CC)C1=C(O)CC(c2c(C)cc(C)cc2C)CC1=O (stereo not given) [Tralkoxydim]	–	49.9 µM	63.2 µM	164 µM	104 µM	–	103 µM	51.2 µM	103 µM	89.7 µM	176 µM	–	46.5 µM	45.3 µM	74.7 µM	122 µM	94.7 µM	–	127 µM	56.3 µM	EC20 Head trunk angle Decrease (Danio rerio embryo [24]): 88 µM; EC10 Otolith (Danio rerio embryo [25]): 126 µM; EC10 Head trunk angle Decrease (Danio rerio embryo [26]): 73.6 µM; EC50 Head trunk angle Decrease (Danio rerio embryo [27]): 120 µM; EC20 Otolith (Danio rerio embryo [28]): 160 µM; EC20 STC decrease (Danio rerio embryo [22]): 142 µM
CC(C)(C)C(O)C(Oc1ccc(Cl)cc1)n1cncn1 (stereo not given) [Triadimenol]	23.2 µM	96.8 µM	20.9 µM	200 µM	108 µM	56.8 µM	147 µM	20.1 µM	138 µM	81.1 µM	177 µM	13.7 µM	64.4 µM	19.6 µM	132 µM	159 µM	90.2 µM	76.2 µM	118 µM	194 µM	EC20 LMR ligth increase (Danio rerio embryo [18]): 17.3 µM; EC20 Head trunk angle Decrease (Danio rerio embryo [24]): 113 µM; EC10 LMR ligth increase (Danio rerio embryo [20]): 8.63 µM; EC10 Mandibular arch distance Decrease (Danio rerio embryo [29]): 116 µM; EC20 Mandibular arch distance Decrease (Danio rerio embryo [30]): 133 µM; EC10 Head trunk angle Decrease (Danio rerio embryo [26]): 94.5 µM; EC50 Head trunk angle Decrease (Danio rerio embryo [27]): 152 µM; EC50 Pigmentation decrease (Danio rerio embryo [21]): 152 µM; EC20 STC decrease (Danio rerio embryo [22]): 135 µM; EC50 Mandibular arch distance Decrease (Danio rerio embryo [31]): 169 µM; EC20 Pigmentation decrease (Danio rerio embryo [23]): 98.2 µM
CSc1nc2cc(Cl)c(Oc3cccc(Cl)c3Cl)cc2[nH]1 [Triclabendazole]	0.829 µM	0.364 µM	0.516 µM	1.72 µM	0.644 µM	3.71 µM	–	0.481 µM	1.27 µM	0.448 µM	–	0.345 µM	0.19 µM	0.462 µM	–	1.42 µM	0.512 µM	1.44 µM	0.00111 µM	1.11 µM	EC10 LMR ligth decrease (Danio rerio embryo [32]): 0.783 µM; EC10 Pigmentation increase (Danio rerio embryo [1]): 0.654 µM; EC20 LMR ligth decrease (Danio rerio embryo [33]): 0.792 µM; EC20 Head trunk angle Decrease (Danio rerio embryo [24]): 1.6 µM; EC10 Head trunk angle Decrease (Danio rerio embryo [26]): 1.39 µM; EC50 Head trunk angle Decrease (Danio rerio embryo [27]): 2.05 µM; EC20 Pigmentation increase (Danio rerio embryo [12]): 0.667 µM; EC50 Pigmentation decrease (Danio rerio embryo [21]): 1.92 µM; EC20 STC decrease (Danio rerio embryo [22]): 0.00782 µM; EC20 Pigmentation decrease (Danio rerio embryo [23]): 1.6 µM
CCCCOC(=O)[C@@H](C)Oc1ccc(Oc2ccc(C(F)(F)F)cn2)cc1 [fluazifop-p-butyl]	–	–	1.65 µM	3.96 µM	1.85 µM	–	4.24 µM	0.991 µM	1.03 µM	0.781 µM	6.88 µM	–	–	0.734 µM	3.19 µM	1.69 µM	1.07 µM	2.74 µM	–	–	EC20 Head trunk angle Decrease (Danio rerio embryo [24]): 3.89 µM; EC10 Otolith (Danio rerio embryo [25]): 4.73 µM; EC10 Head trunk angle Decrease (Danio rerio embryo [26]): 1.74 µM; EC50 Head trunk angle Decrease (Danio rerio embryo [27]): 15.5 µM; EC20 Otolith (Danio rerio embryo [28]): 6.11 µM; EC50 Pigmentation decrease (Danio rerio embryo [21]): 9.58 µM; EC20 Pigmentation decrease (Danio rerio embryo [23]): 4.35 µM
